Data reported in patent publication US20110311651A1, “CA[…] THE TREATMENT OF OCULAR CANCER” (priority 2008, published 2011).
“Also recorded” adds a separate entry of the source.

Assays:
[1] = system: Y79 cells; experiment: Cytotoxicity assay for dose response in 384-well plates (Alamar Blue), Y79; assay type: cell-based, human
Description: (§1) Cytotoxicity assay for dose response in 384-well microtiter plates. Dose response studies were performed in 384-well microtiter plates (#3712, Corning Inc., Corning, N.Y.) according to the following protocol: cells were added in 45 μL medium to the screening plates using Flexdrop. After 72 h incubation was added 5 μL Alamar Blue using Flexdrop. The cells were then incubated for another 24 h, and the fluorescence intensity was read on LEADseeker™ Multimodality Imaging System as previously described. To calculate the IC50 for each compound toward each cell line, the dose response was assessed in duplicate and using 12 point doubling dilutions with 100 μM compound concentration as the upper limit. The dose response curve for each set of data was fitted separately, and the two IC50 values obtained were averaged.
Compared potency of the cardenolide ouabain with known agents in cell models of retinoblastoma. The potency of a representative of the cardenolide scaffold was compared to known effective agents against retinoblastoma. Namely, the dose response of the drug ouabain was tested with the human retinoblastoma cell lines Y79 and RB355, and its potency was compared to vincristine, etoposide, carboplatin, cisplatin, nutlin-3 and calcitriol. […] The activity of vincristine toward Y79 cells reached a plateau at 50% inhibition, which prevented the IC50 for this compound from being calculated.

[2] = system: RB355 cells; experiment: Cytotoxicity assay for dose response in 384-well plates (Alamar Blue), RB355; assay type: cell-based, human
Description: as §1
To explore the structure activity relationship (SAR) within this chemical class a collection of 35 cardenolides and derivatives was constituted. The dose response for each compound toward the ocular cancer cell lines Y79, RB355, WERI-Rb-1 and C918 was then assessed.
Compared potency of the cardenolide ouabain with known agents in cell models of retinoblastoma. The potency of a representative of the cardenolide scaffold was compared to known effective agents against retinoblastoma. […]

[3] = system: Y79 cells; experiment: Pilot study, live staining of treated cells with the dye Yo-Pro; assay type: cell-based, human; details: concentrations higher than 0.5 μM
Description: Compared effect of ouabain and clinical agents on apoptosis of Y79 cells. To determine whether the anti-proliferative effects of the drug ouabain was mediated by induction of apoptosis, immunostaining of activated Caspase-3 in Y79 cells treated with cardenolides or known agents for retinoblastoma for 72 h (green channel) was performed; treated cells were also stained with Hoechst to image the nuclei (blue channel) (FIG. 6). The drug concentrations used in this experiment were previously determined according to a pilot study where treated Y79 cells were live-stained with the dye Yo-Pro, which stains apoptic cells (Idziorek et al., J. Immunol. Methods 1995, 185, 249-258). Based on this study, 72 h was identified as the optimum incubation time and drug concentrations were selected that maximized the number of apoptotic cells (data not shown). Baseline Caspase-3 activation was evaluated with control Y79 cells treated with 1% DMSO (v/v) (FIG. 6A).

[4] = Body weight and signs of toxicity in the xenograft study; assay type: in vivo, mouse; details: throughout the treatment period
Description: In vivo studies. Subcutaneous xenograft experiments were performed at the Memorial Sloan-Kettering Cancer Center Antitumor Assessment Core Facility. Y79LUC cells (10E6) embedded in matrigel (BD Biosciences, San Jose, Calif.) were injected subcutaneously in the right flank of 8-weeks old ICR/SCID male mice. Treatment started when the tumors reached approximately 250 mm^3. The mice were randomized into three groups and two mice per group were treated with either 10% DMSO (v/v) (control group), 1.5 mg/kg ouabain or 15 mg/kg ouabain. Treatment was performed by continuous subcutaneous infusion using osmotic minipumps (#1007D, Alzet, Cupertino, Calif.). Tumor size was measured externally two times a week with a caliper. Body weight of each mouse was monitored as well as other signs of toxicity throughout the treatment period. Bioluminescent imaging of the tumors was performed once a week and prior to sacrifice as follows: mice were anesthetized by isofluorane inhalation and injected with D-luciferin at 50 mg/Kg (Xenogen) intraperitoneally; photonic emission was measured with the In Vivo Imaging System (IVIS 200, Xenogen) with a collection time of 5 seconds.
Assessment of the in vivo efficacy of ouabain in a xenograft model of retinoblastoma. The therapeutic effect of the drug ouabain in a mouse xenograft model of retinoblastoma was also investigated. […]

[5] = system: Y79 cells; experiment: Apoptosis assay, immunofluorescence detection of activated Caspase-3; assay type: cell-based, human; details: 0.5 μM, 72 h, 1% DMSO
Description: Apoptosis assay. Y79 cells seeded in culture medium in a 24-well plate were treated with either vincristine, etoposide, or ouabain at various concentrations in 1% DMSO (v/v) or with 1% DMSO (v/v) alone as a carrier control for 48 h or 72 h. After a wash in PBS, cells were fixed in solution in […] in PBS for 10 minutes. After a wash in PBS, cells for each condition were dried on a glass slide and washed once with water.
The immunofluorescence detection of cleaved Caspase-3 was performed at the Memorial Sloan-Kettering Cancer Center Molecular Cytology Core Facility using a Discovery XT processor (Ventana Medical Systems, Tucson, Ariz.). A rabbit polyclonal Cleaved Caspase 3 (Asp 175) antibody (#9661 L, Cell Signaling, Danvers, Mass.) was used at a concentration of 0.1 μg/ml. […] Automated fluorescence imaging of the green channel (activated Caspase-3) and blue channel (nuclei) was performed using an IN Cell Analyzer 1000 (GE Healthcare).
Compared effect of ouabain and clinical agents on apoptosis of Y79 cells. […] The drug concentrations used in this experiment were previously determined according to a pilot study where treated Y79 cells were live-stained with the dye Yo-Pro, which stains apoptic cells (Idziorek et al., J. Immunol. Methods 1995, 185, 249-258). […] Baseline Caspase-3 activation was evaluated with control Y79 cells treated with 1% DMSO (v/v) (FIG. 6A).

For N.N.O=C([O-])C1(C(=O)[O-])CCC1.[Pt+2] [Carboplatin, carboplatin], the “activity toward Y79 cells below 100 μM” value [1] was “did not demonstrate any significant activity” and the “activity toward RB355 cells below 100 μM” value [2] was “neither caboplatin or calcitriol had any significant activity”.

For C=C1/C(=C\C=C2/CCC[C@]3(C)[C@@H]([C@H](C)CCCC(C)(C)O)CC[C@@H]23)C[C@@H](O)C[C@@H]1O [calcitriol], the “activity toward Y79 cells below 100 μM” value [1] was “did not demonstrate any significant activity” and the “activity toward RB355 cells below 100 μM” value [2] was “neither caboplatin or calcitriol had any significant activity”.

For N.N.[Cl][Pt][Cl] [cisplatin], the “activity toward Y79 cells below 100 μM” value [1] was “did not demonstrate any significant activity”.

For C[C@@H]1O[C@@H](O[C@H]2C[C@@H](O)[C@]3(CO)[C@H]4[C@H](O)C[C@]5(C)[C@@H](C6=CC(=O)OC6)CC[C@]5(O)[C@@H]4CC[C@]3(O)C2)[C@H](O)[C@H](O)[C@H]1O [ouabain], the “effect on Y79 cells in the Yo-Pro pilot study” value [3] was “erradicated Y79 cells”, the toxicity ([4]; 15 mg/kg) was “did not induce any significant toxicity; also recorded: no signs of toxicity were observed” and the “average body weight of treated versus control animals” value ([4]; 1.5 and 15 mg/kg) was “did not differ significantly”. The “apoptosis (activated Caspase-3) compared to baseline” value [5] was “still induced significant apoptosis”.
